Data set [1] addresses T1, human serotonin transporter (hSERT) (Homo sapiens, UniProt P31645).
T1 construct: expressed in transfected cells; Tatsumi et al. 1997), membrane preparation
Put plainly: Screening for human serotonin transporter (hSERT) antagonists, scintillation proximity assay, competition with [3H]-Citalopram. The data set is classed as binding. The conditions noted are these: membranes of HEK-293 cells, SPA. How it is done:
The screening assay of this example was used to determine the affinity of ligands at the hSERT transporter by competition with [^3H]-Citalopram.
Scintillation Proximity Assay (SPA) works by bringing radioligand within close proximity to the bead's scintillant to stimulate light emission. In this assay, the receptor-containing membranes were pre-coupled to the SPA beads and the binding of the appropriate radioligand to the transporter was measured. The light emission was proportional to the amount of bound radioligand. Unbound radioligand produced no signal as a result of distant proximity to scintillant (lack of energy transfer). […]
Cell membranes were prepared using a membrane preparation buffer of 50 mM TRIS (pH 7.4). […] After a second centrifugation, the pellet was re-homogenized and brought to a final volume determined during the assay. […]
The % inhibition was calculated for each compound tested [(Compound counts per minute (CPM) at maximum concentration-Non-Specific CPM)/Total CPM*100]. […]
[formula] where max=total binding, min=non specific binding, x=concentration (M) of the tested compound and n=Hill slope. The inhibition dissociation constant (Ki) of each compound was determined according to the method of Cheng-Prusoff and then converted into negative logarithm (pKi) of the Ki.

Where a name gives a salt, the structure may show the parent alone.

T1 sequence (P31645 whole entry): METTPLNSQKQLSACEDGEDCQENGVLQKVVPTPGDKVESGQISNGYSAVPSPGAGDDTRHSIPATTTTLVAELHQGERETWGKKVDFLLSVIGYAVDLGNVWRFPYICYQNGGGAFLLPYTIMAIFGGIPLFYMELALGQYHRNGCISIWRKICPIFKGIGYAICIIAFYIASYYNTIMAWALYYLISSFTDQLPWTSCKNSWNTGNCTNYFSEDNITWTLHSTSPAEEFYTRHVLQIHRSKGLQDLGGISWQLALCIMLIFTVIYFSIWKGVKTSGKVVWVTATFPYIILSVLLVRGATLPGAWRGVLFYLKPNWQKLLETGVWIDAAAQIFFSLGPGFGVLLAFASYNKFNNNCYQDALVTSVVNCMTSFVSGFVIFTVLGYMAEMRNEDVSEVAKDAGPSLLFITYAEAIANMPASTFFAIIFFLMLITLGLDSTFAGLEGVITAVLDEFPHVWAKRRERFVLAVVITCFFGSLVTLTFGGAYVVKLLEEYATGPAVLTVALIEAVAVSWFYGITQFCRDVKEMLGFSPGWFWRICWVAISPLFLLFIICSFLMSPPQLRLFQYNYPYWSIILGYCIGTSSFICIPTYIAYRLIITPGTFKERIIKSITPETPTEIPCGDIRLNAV

As usually defined, the melting point is the temperature, or range, at which the solid turns liquid. `c1cc2c(c(Cc3ccc4[nH]ccc4c3)c1)CNCC2` came in with a melting point of 173 to 174 °C.
`CNCCc1ccccc1Cc1ccc2[nH]ccc2c1`: the melting point was in the range of 95 to 97 °C.
As for `c1cc2c(c(Cc3ccc4[nH]ccc4c3)c1)CCNC2`, the melting point lay within 194 to 195 °C.
Same read-out and setting: then `CNCc1cc(N2CCOCC2)ccc1Cc1ccc2[nH]ccc2c1` (as salt: fumarate) [Compound 39, [2-(1H-Indol-5-ylmethyl)-5-morpholin-4-yl-benzyl]-methyl-amine], with 135 to 136 °C; and `CNCc1ccccc1Cc1ccc2[nH]c(S(C)(=O)=O)cc2c1` (as salt: fumarate) [Compound 49, [2-(2-Methanesulfonyl-1H-indol-5-ylmethyl)-benzyl]-methyl-amine], with 179 to 180 °C; and `CNCc1ccccc1Cc1ccc2[nH]ccc2c1` (as salt: hydrochloride) [Compound 1, [2-(1H-Indol-5-ylmethyl)-benzyl]-methyl-amine], with 198 to 199 °C.
Same read-out and setting: then `CNCc1ccccc1Cc1ccc2cc[nH]c2c1` [Compound 15, [2-(1H-Indol-6-ylmethyl)-benzyl]-methyl-amine], with 132 °C.
The same measure, in the same setting: then `CNCc1ccccc1Cc1cccc2[nH]ccc12` [Compound 16, [2-(1H-Indol-4-ylmethyl)-benzyl]-methyl-amine], with 111 to 112 °C; and `c1ccc(CN2CCC2)c(Cc2ccc3[nH]ccc3c2)c1` [Compound 18, 5-(2-Azetidin-1-ylmethyl-benzyl)-1H-indole], with 128 to 130 °C.
As for `CNCc1cc(F)ccc1Cc1ccc2[nH]ccc2c1` [Compound 20, [5-Fluoro-2-(1H-indol-5-ylmethyl)-benzyl]-methyl-amine], the melting point lay within 162 to 163 °C.
On the same count and under the same terms, then `OCCNCc1ccccc1Cc1ccc2[nH]ccc2c1` [Compound 21, 2-[2-(1H-Indol-5-ylmethyl)-benzylamino]-ethanol], with 117 to 118 °C; and `CNCc1ccccc1C(O)c1ccc2[nH]ccc2c1` (stereo not drawn) [Compound 24, (1H-Indol-5-yl)-(2-methylaminomethyl-phenyl)-methanol], with 75 to 78 °C; and `c1ccc(Cn2ccnc2)c(Cc2ccc3[nH]ccc3c2)c1` [Compound 25, 5-(2-Imidazol-1-ylmethyl-benzyl)-1H-indole], with 61 to 67 °C.
In turn, `CNCc1cc(Cl)ccc1Cc1ccc2[nH]ccc2c1` [Compound 27, [5-Chloro-2-(1H-indol-5-ylmethyl)-benzyl]-methyl-amine] displayed a melting point of 164 to 165 °C.
A word on the Ki: it is the equilibrium dissociation constant of an inhibitor or competing ligand from its target. Consider `CNCc1ccccc1Cc1ccc2[nH]cc(C#N)c2c1` [Compound 29, 5-(2-Methylaminomethyl-benzyl)-1H-indole-3-carbonitrile], for which the melting point was in the range of 179 to 180 °C. Besides, the Ki in data set [1] is around 100 pM.
Turning to `CNCc1cccc(Cc2ccc3[nH]ccc3c2)c1` [Compound 32, [3-(1H-Indol-5-ylmethyl)-benzyl]-methyl-amine], the melting point came to 153 °C.
The same measure, in the same setting: as for `CNCc1ccc(OC)cc1Cc1ccc2[nH]ccc2c1` [Compound 33, [2-(1H-Indol-5-ylmethyl)-4-methoxy-benzyl]-methyl-amine], the figure is 157 to 158 °C; as for `CNCc1cc(OC)ccc1Cc1ccc2[nH]ccc2c1` [Compound 34, [2-(1H-Indol-5-ylmethyl)-5-methoxy-benzyl]-methyl-amine], 155 to 156 °C; as for `CNCc1cc(C#N)ccc1Cc1ccc2[nH]ccc2c1` [Compound 38, 4-(1H-Indol-5-ylmethyl)-3-methylaminomethyl-benzonitrile], 144 to 145 °C.
The compound `CNCc1cc(NS(C)(=O)=O)ccc1Cc1ccc2[nH]ccc2c1` [Compound 41, N-[4-(1H-Indol-5-ylmethyl)-3-methylaminomethyl-phenyl]-methanesulfonamide] yielded a melting point of 125 to 126 °C.
In the case of `O=C1CNCCN1c1ccccc1Cc1ccc2[nH]ccc2c1` [Compound 42, 1-[2-(1H-Indol-5-ylmethyl)-phenyl]-piperazin-2-one], the melting point fell in the range of 100 to 102 °C.
Still for that read-out and setting: as for `CNCc1ccc(C#N)cc1Cc1ccc2[nH]ccc2c1` [Compound 43, 3-(1H-Indol-5-ylmethyl)-4-methylaminomethyl-benzonitrile], the figure is 160 to 163 °C; as for `CNCc1ccc(C(N)=O)cc1Cc1ccc2[nH]ccc2c1` [Compound 44, 3-(1H-Indol-5-ylmethyl)-4-methylaminomethyl-benzamide], 97 to 100 °C.
`CNCc1scnc1Cc1ccc2[nH]ccc2c1` [Compound 45, [4-(1H-Indol-5-ylmethyl)-thiazol-5-ylmethyl]-methyl-amine] showed a melting point of 152 to 153 °C.
On the same count and under the same terms, then `NCC(O)c1ccccc1Cc1ccc2[nH]ccc2c1` (stereo not drawn) [Compound 47, 2-Amino-1-[2-(1H-indol-5-ylmethyl)-phenyl]-ethanol], with 70 to 72 °C.
The same measure, in the same setting: as for `c1ccc(N2CCOCC2)c(Cc2ccc3[nH]ccc3c2)c1` [Compound 48, 5-(2-Morpholin-4-yl-benzyl)-1H-indole], the figure is 189 to 190 °C.
